According to patent publication US20210261569A1, “FUSED HETEROCYCLIC DERIVATIVES HAVING SELECTIVE BACE1 INHIBITORY ACTIVITY” (Shionogi & Co., Ltd., priority 2018, published 2021):

How the values were obtained:
[1] = target: T1, recombinant BACE2 protein (Homo sapiens, UniProt Q9Y5Z0); assay: BACE2 biochemical FRET based assay; conditions: pH 5.0, 450 min at room temperature
T1 construct: recombinant BACE2 protein in a final concentration of 0.4 μg/mL
T1 sequence (Q9Y5Z0 63-518): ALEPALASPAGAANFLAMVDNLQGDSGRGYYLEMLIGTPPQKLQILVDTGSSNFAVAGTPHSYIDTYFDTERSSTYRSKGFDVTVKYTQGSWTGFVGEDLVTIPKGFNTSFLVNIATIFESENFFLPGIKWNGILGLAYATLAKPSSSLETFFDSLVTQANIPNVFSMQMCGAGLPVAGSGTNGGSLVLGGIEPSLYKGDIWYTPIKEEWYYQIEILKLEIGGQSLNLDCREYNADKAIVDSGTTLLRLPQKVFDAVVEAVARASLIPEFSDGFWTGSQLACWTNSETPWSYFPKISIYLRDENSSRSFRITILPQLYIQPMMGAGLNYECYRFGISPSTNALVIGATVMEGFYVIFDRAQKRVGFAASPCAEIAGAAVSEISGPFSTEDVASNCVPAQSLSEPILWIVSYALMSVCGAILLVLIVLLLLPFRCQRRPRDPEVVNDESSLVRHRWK
Excerpt: (§1) This assay is a Fluorescence Resonance Energy Transfer Assay (FRET) based assay. The substrate for this assay contains the ‘Swedish’ Lys-Met/Asn-Leu mutation of the amyloid precursor protein (APP) beta-secretase cleavage site. This substrate also contains two fluorophores: (7-methoxycoumarin-4-yl) acetic acid (Mca) is a fluorescent donor with excitation wavelength at 320 nm and emission at 405 nm and 2,4-dinitrophenol (Dnp) is a proprietary quencher acceptor. […] Upon cleavage by the beta-secretase, the fluorophore Mca is separated from the quenching group Dnp, restoring the full fluorescence yield of the donor. The increase in fluorescence is linearly related to the rate of proteolysis.
Briefly in a 384-well format recombinant BACE2 protein in a final concentration of 0.4 μg/mL was incubated for 450 minutes at room temperature with 10 μM substrate in incubation buffer (final concentrations: 33.3 mM Citrate buffer pH 5.0, 0.033% PEG, 2% DMSO) in the absence or presence of compound. Next the amount of proteolysis was directly measured by fluorescence measurement at T=0 and T=450 (excitation at 320 nm and emission at 405 nm). Results were expressed in RFU (Relative Fluorescence Units), as difference between T450 and T0.
(§2) A best-fit curve was fitted by a minimum sum of squares method to the plot of % Controlmin versus compound concentration. From this an IC50 value (inhibitory concentration causing 50% inhibition of activity) can be obtained.

[2] = target: T2, recombinant BACE1 protein (Homo sapiens, UniProt P56817); assay: BACE1 biochemical FRET based assay; conditions: for Selectivity: BACE2 IC50 relative to BACE1 IC50; for IC50: FRET, pH 5.0, 450 min at room temperature
T2 construct: recombinant BACE1 protein in a final concentration of 0.04 μg/mL
T2 sequence (P56817 46-501): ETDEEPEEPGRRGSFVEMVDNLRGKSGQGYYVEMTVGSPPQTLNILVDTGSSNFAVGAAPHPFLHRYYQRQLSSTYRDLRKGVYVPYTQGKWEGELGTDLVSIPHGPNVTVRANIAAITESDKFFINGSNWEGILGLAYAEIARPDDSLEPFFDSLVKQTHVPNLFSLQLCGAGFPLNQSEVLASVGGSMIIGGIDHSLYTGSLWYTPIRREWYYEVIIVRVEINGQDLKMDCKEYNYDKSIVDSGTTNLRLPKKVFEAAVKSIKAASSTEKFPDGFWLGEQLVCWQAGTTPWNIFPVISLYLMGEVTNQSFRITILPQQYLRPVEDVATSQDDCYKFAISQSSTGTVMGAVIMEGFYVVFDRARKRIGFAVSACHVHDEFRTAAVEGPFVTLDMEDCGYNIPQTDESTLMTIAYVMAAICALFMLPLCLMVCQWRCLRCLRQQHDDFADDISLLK
Excerpt: as §1, with “this assay is an APP derived 13 amino acids peptide that contains the” for “this assay contains the”, “protein (APP) beta-site secretase cleavage site.” for “protein (APP) beta-secretase cleavage site.”, “cleavage by BACE1, the fluorophore” for “cleavage by the beta-secretase, the fluorophore”
Briefly in a 384-well format recombinant BACE1 protein in a final concentration of 0.04 μg/mL was incubated for 450 minutes at room temperature with 10 μm substrate in incubation buffer (final concentrations: 33.3 mM Citrate buffer pH 5.0, 0.033% PEG, 3% DMSO) in the absence or presence of compound. Next the amount of proteolysis was directly measured by fluorescence measurement at T=0′-120′ and T=450′ (excitation at 320 nm and emission at 405 nm). Results were expressed in RFU (Relative Fluorescence Units), as difference between T450 and Tx (Tx is chosen depending on the reaction speed between 0 and 120 minutes).
as §2

[3] = target: T3, P-gp (MDR1 expressing LLC-PK1 cells) (Homo sapiens, UniProt P08183); assay: P-gp substrate test; type: in vitro ADME; conditions: MDR1 expressing LLC-PK1 cells vs parent LLC-PK1 cells
T3 construct: host or cells: LLC-PK1 (porcine kidney) cells
T3 sequence (P08183 whole entry): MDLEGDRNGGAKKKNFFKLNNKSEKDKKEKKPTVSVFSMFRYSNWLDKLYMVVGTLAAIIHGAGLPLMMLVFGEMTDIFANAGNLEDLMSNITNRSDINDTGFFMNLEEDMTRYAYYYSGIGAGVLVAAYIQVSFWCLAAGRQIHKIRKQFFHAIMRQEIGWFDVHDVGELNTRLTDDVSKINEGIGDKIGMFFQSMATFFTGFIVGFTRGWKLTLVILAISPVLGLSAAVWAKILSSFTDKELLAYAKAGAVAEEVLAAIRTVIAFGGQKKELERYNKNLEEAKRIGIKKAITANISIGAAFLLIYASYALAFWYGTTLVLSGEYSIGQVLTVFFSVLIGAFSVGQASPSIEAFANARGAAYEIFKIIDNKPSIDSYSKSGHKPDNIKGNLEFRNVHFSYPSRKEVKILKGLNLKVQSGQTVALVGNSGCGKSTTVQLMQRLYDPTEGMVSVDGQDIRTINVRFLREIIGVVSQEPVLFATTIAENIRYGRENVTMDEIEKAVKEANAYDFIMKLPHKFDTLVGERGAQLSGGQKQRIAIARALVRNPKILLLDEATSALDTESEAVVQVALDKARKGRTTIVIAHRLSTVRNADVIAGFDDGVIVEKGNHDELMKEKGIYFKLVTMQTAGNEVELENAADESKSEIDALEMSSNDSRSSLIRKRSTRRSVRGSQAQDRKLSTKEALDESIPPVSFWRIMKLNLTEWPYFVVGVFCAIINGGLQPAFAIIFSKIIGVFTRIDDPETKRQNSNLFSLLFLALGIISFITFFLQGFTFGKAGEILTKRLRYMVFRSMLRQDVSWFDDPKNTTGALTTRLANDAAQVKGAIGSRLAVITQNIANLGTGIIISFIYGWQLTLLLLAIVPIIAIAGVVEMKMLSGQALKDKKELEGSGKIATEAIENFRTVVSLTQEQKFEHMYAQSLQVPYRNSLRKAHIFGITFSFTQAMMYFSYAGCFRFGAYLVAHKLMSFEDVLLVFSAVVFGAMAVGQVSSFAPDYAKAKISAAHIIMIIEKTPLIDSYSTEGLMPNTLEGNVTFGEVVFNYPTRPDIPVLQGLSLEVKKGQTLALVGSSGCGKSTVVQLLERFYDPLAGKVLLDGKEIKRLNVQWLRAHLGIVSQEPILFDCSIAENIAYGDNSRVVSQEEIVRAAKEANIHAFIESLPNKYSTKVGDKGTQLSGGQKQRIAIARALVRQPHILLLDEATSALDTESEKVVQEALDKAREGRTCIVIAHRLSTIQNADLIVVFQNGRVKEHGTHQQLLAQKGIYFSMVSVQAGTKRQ
Experimental: 1. MDR1 expressing LLC-PK1 cells and its parent cells were routinely cultured in Medium A (Medium 199 (Invitrogen) supplemented with 10% FBS (Invitrogen), gentamycin (0.05 mg/mL, Invitrogen) and hygromycin B (100 μg/mL, Invitrogen)) at 37° C. under 5% CO2/95% 02 gasses. For the transport experiments, these cells were seeded on Transwell (Registered trademark) insert (96-well, pore size: 0.4 μm, Coaster) at a density of 1.4×10^4 cells/insert and added Medium B (Medium 199 supplemented with 10% FBS and gentamycin at 0.05 mg/mL) to the feeder tray. These cells were incubated in a CO2 incubator (5% CO2/95% 02 gasses, 37° C.) and replace apical and basolateral culture medium every 48-72 hr after seeding. These cells were used between 4 and 6 days after seeding. 2. The medium in the culture insert seeded with MDR1 expressing cells or parent cells were removed by aspiration and rinsed by HBSS. The apical side (140 μL) or basolateral side (175 μL) was replaced with transport buffer containing reference substrates and the present invention and then an aliquot (50 μL) of transport buffer in the donor side was collected to estimate initial concentration of reference substrate and the present invention. After incubation for designed time at 37° C., an aliquot (50 μL) of transport buffer in the donor and receiver side were collected. Assay was performed by duplicate or triplicate. 3. Reference substrate and the present invention in the aliquot was quantified by LC/MS/MS.
Permeated amounts across monolayers of MDR1 expressing and parent cells were determined, and permeation coefficients (Pe) were calculated using Excel 2003 from the following equitation:
Pe (cm/sec)=Permeated amount (pmol)/area of cell membrane (cm^2)/initial concentration (nM)/incubation time (sec) Where, permeated amount was calculated from permeation concentration (nM, concentration of the receiver side) of the substance after incubation for the defined time (sec) multiplied by volume. (mL) and area of cell membrane was used 0.1433 (cm2). The efflux ratio was calculated using the following equation:
Efflux Ratio=Basolateral-to-Apical Pe/Apical-to-Basolateral Pe
The net flux was calculated using the following equation:
Net flux=Efflux Ratio in MDR1 expressing cells/Efflux Ratio in parent cells

[4] = target: T4, human ether-a-go-go related gene (hERG) channel (Homo sapiens, UniProt Q12809); assay: hERG test (whole cell patch clamp, QPatch); type: cell-based; conditions: CHO cells expressing hERG, tail peak current
T4 construct: expressed in transfected cells; host or cells: CHO cells
T4 sequence (Q12809 whole entry): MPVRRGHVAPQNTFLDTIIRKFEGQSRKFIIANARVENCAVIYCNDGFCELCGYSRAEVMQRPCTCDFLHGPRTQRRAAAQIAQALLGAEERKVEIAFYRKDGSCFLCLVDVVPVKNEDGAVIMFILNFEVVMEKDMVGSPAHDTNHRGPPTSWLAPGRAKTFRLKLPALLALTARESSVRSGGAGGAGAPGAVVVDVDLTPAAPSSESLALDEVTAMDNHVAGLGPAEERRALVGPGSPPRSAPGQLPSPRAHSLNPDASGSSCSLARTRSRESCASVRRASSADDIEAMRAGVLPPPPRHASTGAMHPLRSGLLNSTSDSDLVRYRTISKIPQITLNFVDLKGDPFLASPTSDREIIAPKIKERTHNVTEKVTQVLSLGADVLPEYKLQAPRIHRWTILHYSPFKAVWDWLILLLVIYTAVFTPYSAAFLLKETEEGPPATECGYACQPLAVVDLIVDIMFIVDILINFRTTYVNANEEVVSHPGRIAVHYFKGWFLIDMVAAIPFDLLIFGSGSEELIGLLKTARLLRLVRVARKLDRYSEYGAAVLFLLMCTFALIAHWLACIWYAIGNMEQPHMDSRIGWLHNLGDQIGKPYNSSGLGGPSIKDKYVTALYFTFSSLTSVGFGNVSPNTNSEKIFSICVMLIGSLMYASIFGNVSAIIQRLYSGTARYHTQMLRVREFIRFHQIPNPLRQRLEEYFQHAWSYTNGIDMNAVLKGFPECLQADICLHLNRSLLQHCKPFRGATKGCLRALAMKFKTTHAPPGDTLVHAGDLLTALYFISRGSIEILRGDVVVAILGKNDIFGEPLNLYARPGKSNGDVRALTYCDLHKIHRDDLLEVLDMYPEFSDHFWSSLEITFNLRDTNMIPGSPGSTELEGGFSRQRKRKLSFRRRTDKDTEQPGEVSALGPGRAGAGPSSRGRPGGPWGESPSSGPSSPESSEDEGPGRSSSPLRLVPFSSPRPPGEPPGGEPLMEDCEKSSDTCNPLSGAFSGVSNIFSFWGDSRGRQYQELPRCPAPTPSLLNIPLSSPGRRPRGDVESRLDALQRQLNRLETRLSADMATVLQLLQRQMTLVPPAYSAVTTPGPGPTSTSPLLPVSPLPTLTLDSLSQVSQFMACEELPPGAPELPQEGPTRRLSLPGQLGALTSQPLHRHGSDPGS
Excerpt: For the purpose of assessing risk of an electrocardiogram QT interval prolongation, effects on delayed rectifier K+ current (IKr), which plays an important role in the ventricular repolarization process of the compound of the present invention, was studied using CHO cells expressing human ether-a-go-go related gene (hERG) channel.
A cell was retained at a membrane potential of −80 mV by whole cell patch clamp method using an automated patch clamp system (QPatch; Sophion Bioscience A/S). After application of leak potential at −50 mV, IKr induced by depolarization pulse stimulation at +20 mV for 2 seconds and, further, repolarization pulse stimulation at −50 mV for 2 seconds was recorded.
After the generated current was stabilized, extracellular solution (NaCl: 145 mmol/L, KCl: 4 mmol/L, CaCl2:2 mmol/L MgCl2:1 mmol/L, 1 mmol/L, HEPES (4-(2-hydroxyethyl)-1-piperazineethanesulfonic acid: 10 mmol/L, glucose:10 mmol/L pH=7.4) in which the compound of the present invention have been dissolved at an objective concentration was applied to the cell under the room temperature condition for 10 minutes. From the recording IKr, an absolute value of the tail peak current was measured based on the current value at the resting membrane potential using an analysis software (QPatch assay software; Sophion Bioscience A/S). Further, the % inhibition relative to the tail peak current before application of the compound of the present invention was calculated, and compared with the vehicle-applied group (0.1% dimethyl sulfoxide solution) to assess influence of the compound of the present invention on IKr.

[5] = Metabolic stability test; type: in vitro ADME; conditions: human liver microsomes 0.5 mg protein/mL, NADPH, 37° C.
Experimental: Using a commercially available pooled human liver microsomes, a compound of the present invention was reacted for a constant time, a remaining rate was calculated by comparing a reacted sample and an unreacted sample, thereby, a degree of metabolism in liver was assessed.
A reaction was performed (oxidative reaction) at 37° C. for 0 minute or 30 minutes in the presence of 1 mmol/L NADPH in 0.2 mL of a buffer (50 mmol/L Tris-HCl pH 7.4, 150 mmol/L potassium chloride, 10 mmol/L magnesium chloride) containing 0.5 mg protein/mL of human liver microsomes. After the reaction, 50 μL of the reaction solution was added to 100 μL of a methanol/acetonitrile=1/1 (v/v), mixed and centrifuged at 3000 rpm for 15 minutes. The compound of the present invention in the supernatant was quantified by LC/MS/MS or solid phase extraction (SPE)/MS, and a remaining amount of the compound of the present invention after the reaction was calculated, letting a compound amount at 0 minute reaction time to be 100%.

SMILES	IC50 [1]	Selectivity [2]	IC50 [2]	P-gp ER ratio [3]	hERG inhibition (%) at 3 μM [4]	Remaining rate (%) at 30 min [5]
Cn1cc([C@@H]2OC[C@H]3OC(N)=N[C@](C)(c4cc(NC(=O)c5cnc(OCF)cn5)ccc4F)[C@H]32)cn1 [Compound I-014]	10000 nM	223	44.7 nM			
C[C@]1(c2cc(NC(=O)c3ccc(C#N)cn3)ccc2F)N=C(N)O[C@@H]2CO[C@@H](C(F)(F)F)[C@@H]21 [Compound I-016]	355 nM	62.3	5.7 nM			
C[C@]1(c2cc(NC(=O)c3ccc(C#N)cn3)ccc2F)N=C(N)O[C@@H]2CO[C@@H](CC(F)F)[C@@H]21 [Compound I-018]	45.7 nM	38.1	1.2 nM			
C[C@]1(c2cc(NC(=O)c3cnc(OCF)cn3)ccc2F)N=C(N)O[C@@H]2CO[C@@H](CC(F)F)[C@@H]21 [Compound I-019]	245 nM	60.2	4.07 nM			
C[C@]1(c2cc(NC(=O)c3ccc(C#N)cn3)ccc2F)N=C(N)O[C@@H]2CO[C@@H](CCF)[C@@H]21 [Compound I-020]	46.8 nM	21.4	2.19 nM			
C[C@]1(c2cc(NC(=O)c3cnc(OCF)cn3)ccc2F)N=C(N)O[C@@H]2CO[C@@H](CCF)[C@@H]21 [Compound I-021]	316 nM	37.1	8.51 nM			
C[C@]1(c2cc(NC(=O)c3cnc(OCF)cn3)ccc2F)N=C(N)O[C@@H]2CO[C@@H](C(F)F)[C@@H]21 [Compound I-022]	661 nM	27.5	24 nM			
CC[C@@H]1OC[C@H]2OC(N)=N[C@](C)(c3cc(NC(=O)c4cnc(OCF)cn4)ccc3F)[C@@H]12 [Compound I-023]	245 nM	51.2	4.79 nM			
CC(C)CCC[C@@H]1OC[C@H]2OC(N)=N[C@](C)(c3cc(NC(=O)c4cnc(OCF)cn4)ccc3F)[C@@H]12 [Compound I-025]	11.7 nM	9.3	1.26 nM			
CC(C)C[C@@H]1OC[C@H]2OC(N)=N[C@](C)(c3cc(NC(=O)c4cnc(OCF)cn4)ccc3F)[C@@H]12 [Compound I-028]	589 nM	87.1	6.76 nM			
CC(C)C[C@@H]1OC[C@H]2OC(N)=N[C@](C)(c3cc(NC(=O)c4cnc(OC[C@@H](C)F)cn4)ccc3F)[C@@H]12 [Compound I-029]	4370 nM	191	22.9 nM			
C[C@@H](F)COc1cnc(C(=O)Nc2ccc(F)c([C@@]3(C)N=C(N)O[C@@H]4CO[C@@H](C(F)(F)F)[C@@H]43)c2)cn1 [Compound I-030]	10000 nM	151	66.1 nM			
Cc1noc(C)c1[C@@H]1OC[C@H]2OC(N)=N[C@](C)(c3cc(NC(=O)c4cnc(OCF)cn4)ccc3F)[C@H]21 [Compound I-031]	3390 nM	282	12 nM			
C[C@H]1OC[C@H]2[C@@H]1OC(N)=N[C@]2(CF)c1cc(NC(=O)c2cnc(-n3cncn3)cn2)ccc1F [Compound I-051]	316 nM	63.1	5.01 nM			
C[C@H]1OC[C@H]2[C@@H]1OC(N)=N[C@]2(CF)c1cc(NC(=O)c2cnc(OCF)cn2)cc(F)c1F [Compound I-070]				3.8	9.4%	52%
C[C@@H]1OC[C@H]2[C@@H]1OC(N)=N[C@]2(CF)c1cc(NC(=O)c2cnc(OC(F)F)cn2)ccc1F [Compound I-087]				5.8	28.7%	85%
NC1=N[C@](CF)(c2cc(NC(=O)c3cnc(OCF)cn3)ccc2F)[C@@H]2COCC[C@H]2O1 [II-017]	178 nM	23.4	7.6 nM			
